Type in all cases: biochemical
For one test, the target named is T1, Taq DNA polymerase (Thermus aquaticus, UniProt P19821).
T1 construct: purchased APBiotech
Description: Thermostable DNA polymerase primer extension, Taq. Further details: key to result of incorporation (termination / further chain extension): T: Incorporation results in termination; E: Incorporation permits further chain extension; T/E: Predominant product is primer extended by one base, but evidence of some further extension also observed. As to conditions: DNA template, 45° C. for 20–40 minutes; for primer extended by at least one base within assay time (grade): TTP replaced entirely by test compound. As for the experimental part:
(§1) DNA polymerase assays were performed using Sequence 1 as primer and Sequence 2 as template. • Sequence 1 5′[Cy3]TAACTCATTAACAGGATC 3′ • Sequence 2 5′AT TCGCGGTATTCTGGTATGAAGCTTTTAGATCCTGTTAATGAGTTA GTA3′
(§2) The template (Sequence 2) was designed such that the base (underlined) immediately adjacent to the 3′ end of the hybridised primer is complementary to the nucleotide test compound. Nucleotide test compounds were compounds (6) (4′-C-(glycylaminomethyl)thymidine triphosphate), (8) (4′-C-(N-trifluoroacetyaminomethyl)thymidine triphosphate) and (9) (4′-C-(aminomethyl)thymidine triphosphate) as described above.
(§3) Primer extension reactions were performed using the above primers in the presence of 40 to 80 μM of nucleotide triphosphates. Positive control reactions contained all four native nucleotide triphosphates. For the other reactions the TTP was replaced with either a 2:1 ratio of […] for the terminator control, or entirely by the test compound The enzymes were used at a final concentration of 0.175 units/μl and a magnesium ion concentration of 2.5 mM in buffers supplied by the manufacturer. The primer and template concentrations were 0.5 pmol/μl and 2 pmol/μl respectively.
(§4) Extension reactions with thermophilic enzymes were performed by initially denaturing the fully assembled reactions at 70° C. for 5 min. followed by 45° C. for 20–40 minutes. The following enzymes were used: Taq DNA polymerase (Taq); Thermosequenase (TS); Thermosequenase II (TSII); Thermosequenase E (TSE), Tfl DNA polymerase (Tfl); Tth DNA polymerase (Tth), deltaTts DNA polymerase (deltaTts), deltaTts D DNA polymerase (dettaTTSD) (all from APBiotech); Pfu DNA polymerase (Pfu) (Stratagene Ltd); Vent™ DNA polymerase (Vent) (New England Biolabs).
(§5) The reactions were stopped by adding a 0.5 volume aliquot of 80% formamide containing 0.1% (w/v) bromophenol blue and 0.1% (w/v) cresol blue. The reaction products were separated by denaturing gel electrophoresis at a constant power of 45 W on 16% polyacrylamide gels containing 50% urea.
(§6) Gels were scanned for Cy3 fluorescence on a Molecular Dynamics Fluorimager and the data analysed using Molecular Dynamics ImageQuant 5 software.
(§7) The incorporation of a test nucleotide triphosphate results in the appearance on a polyacrylamide gel of a single band corresponding to a single base extension product. If, however, the enzyme adds additional bases then further bands would be observed that corresponded to either the full-length product or positions of other complementary bases in the template.

A further test relates to Thermosequenase E. Description: Thermostable DNA polymerase primer extension, TSE. The arrangement: key to result of incorporation (termination / further chain extension): T: Incorporation results in termination; E: Incorporation permits further chain extension; T/E: Predominant product is primer extended by one base, but evidence of some further extension also observed. As to conditions: DNA template, 45° C. for 20–40 minutes; for primer extended by at least one base within assay time (grade): TTP replaced entirely by test compound. As for the experimental part:
as §1, §2, §3, §4, §5, §6, §7

For a further test, the target named is T2, Tfl DNA polymerase (Thermus thermophilus, UniProt P30313).
T2 construct: purchased APBiotech
T2 sequence (P30313 whole entry): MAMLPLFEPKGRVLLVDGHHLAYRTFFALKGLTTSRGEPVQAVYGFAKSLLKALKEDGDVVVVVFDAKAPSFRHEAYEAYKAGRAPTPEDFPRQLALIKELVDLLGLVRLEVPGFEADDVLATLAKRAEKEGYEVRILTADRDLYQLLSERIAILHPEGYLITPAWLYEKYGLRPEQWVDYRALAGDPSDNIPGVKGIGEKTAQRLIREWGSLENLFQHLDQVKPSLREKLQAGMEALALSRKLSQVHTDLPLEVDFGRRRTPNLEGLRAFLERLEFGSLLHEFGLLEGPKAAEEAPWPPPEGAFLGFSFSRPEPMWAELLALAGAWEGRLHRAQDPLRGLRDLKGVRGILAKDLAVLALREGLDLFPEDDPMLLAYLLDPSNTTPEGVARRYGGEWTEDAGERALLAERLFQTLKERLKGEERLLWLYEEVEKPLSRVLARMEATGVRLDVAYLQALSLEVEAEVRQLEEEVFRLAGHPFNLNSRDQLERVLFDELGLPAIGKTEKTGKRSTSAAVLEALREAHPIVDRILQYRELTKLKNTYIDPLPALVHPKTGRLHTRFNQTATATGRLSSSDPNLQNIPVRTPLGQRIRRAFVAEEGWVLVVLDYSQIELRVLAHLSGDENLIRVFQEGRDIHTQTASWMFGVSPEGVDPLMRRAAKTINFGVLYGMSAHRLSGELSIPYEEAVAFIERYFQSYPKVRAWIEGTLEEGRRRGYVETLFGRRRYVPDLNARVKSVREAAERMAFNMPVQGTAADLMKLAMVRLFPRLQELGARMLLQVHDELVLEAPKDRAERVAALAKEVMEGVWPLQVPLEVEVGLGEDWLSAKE
Put plainly: Thermostable DNA polymerase primer extension, Tfl. Conditions: DNA template, 45° C. for 20–40 minutes; for primer extended by at least one base within assay time (grade): TTP replaced entirely by test compound. Further details: key to result of incorporation (termination / further chain extension): T: Incorporation results in termination; E: Incorporation permits further chain extension; T/E: Predominant product is primer extended by one base, but evidence of some further extension also observed. The protocol:
as §1, §2, §3, §4, §5, §6, §7

A further test has as its target T3, T7 DNA polymerase (Escherichia phage T7, UniProt P00581).
T3 construct: purchased AP Biotech
Put plainly: Mesophilic DNA polymerase primer extension, T7. As to conditions: DNA template, 37° C. for 20–40 minutes; for primer extended by at least one base within assay time (grade): TTP replaced entirely by test compound. Further details: key to result of incorporation (termination / further chain extension): T: Incorporation results in termination; E: Incorporation permits further chain extension; T/E: Predominant product is primer extended by one base, but evidence of some further extension also observed. The protocol:
as §1, §2, §3
(§8) Extension reactions preformed with mesophilic polymerases were carried out by mixing all the components of the reaction except the enzyme and heating to 70° C. for 5 min. After the reactions had cooled to room temperature 0.175 units of the enzyme were added and the reactions heated to 37° C. for 20–40 minutes. The following enzymes were used: T7 DNA polymerase (T7); Sequenase 2™ (Seq); Klenow fragment of DNA polymerase 1 (Klen); phi-29 DNA polymerase (Phi-29); T4 DNA polymerase (T4) (all from AP Biotech) and Bst DNA polymerase (Bst) (Cambio Ltd).
as §5, §6, §7

The test system of the next test is Thermosequenase. Put plainly: Thermostable polymerase under reverse transcription conditions, TS I. Further details: key to result of incorporation (termination / further chain extension): T: Incorporation results in termination; E: Incorporation permits further chain extension; T/E: Predominant product is primer extended by one base, but evidence of some further extension also observed. As to conditions: RNA template, 2.5 mM Manganese ions; for primer extended by at least one base within assay time (grade): Tth reaction buffer. As for the experimental part:
as §1, §2, §3, §4
(§9) Reverse transcriptase reactions were performed essentially as described above for thermophilic and mesophilic enzymes. The template for these reactions was the RNA equivalent of sequence 2. All the thermophilic enzymes were assayed in Tth reaction buffer (Cambio Ltd, Cambridge UK) containing 2.5 mM Manganese ions. The following enzymes were used: Thermosequenase (TS1); Thermosequenase II (TSII); delta Tts DNA polymerase (deltaTts); delta Tts D DNA polymerase (deltaTtsD) (all from APBiotech); Retrotherm reverse transcriptase (Retroth) (Cambio Ltd); Tth DNA polymerase (Tth) (Cambio Ltd.).
as §5, §6, §7

In a further test the test system is delta Tts DNA polymerase. Put plainly: Thermostable polymerase under reverse transcription conditions, delta Tts. The arrangement: key to result of incorporation (termination / further chain extension): T: Incorporation results in termination; E: Incorporation permits further chain extension; T/E: Predominant product is primer extended by one base, but evidence of some further extension also observed; key to primer extended by at least one base within assay time (grade): −: No extension within assay time; +/−: up to 25% of primer extended by at least one base within assay time; +: up to 50% of primer extended by at least one base within assay time; ++: up to 75% of primer extended by at least one base within assay time; +++: essentially all primer extended by at least one base within assay time. Conditions: RNA template, 2.5 mM Manganese ions; for primer extended by at least one base within assay time (grade): Tth reaction buffer. As for the experimental part: as §1, §2, §3, §4, §9, §5, §6, §7

The subject of a further test is a range of polymerases. Description: DNA polymerase assays (summary). As to conditions: for further extension after incorporation: reverse transcriptase conditions; for result of incorporation / substrate for polymerases: summary of polymerase assays. As for the experimental part:
as §1, §2, §3, §4, §8, §9
Mesophilic reverse transcriptases (AMV RT; MuLV RT; SAV RT and HIV RT all from APBiotech) were assayed in their respective buffers with a final enzyme concentration of 4 units/μl.
as §5, §6, §7

T3 sequence (P0AA25 2-109): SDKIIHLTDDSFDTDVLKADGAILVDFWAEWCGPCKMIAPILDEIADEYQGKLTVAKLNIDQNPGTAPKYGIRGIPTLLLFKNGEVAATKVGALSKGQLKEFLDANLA
T3 sequence (P00581 whole entry): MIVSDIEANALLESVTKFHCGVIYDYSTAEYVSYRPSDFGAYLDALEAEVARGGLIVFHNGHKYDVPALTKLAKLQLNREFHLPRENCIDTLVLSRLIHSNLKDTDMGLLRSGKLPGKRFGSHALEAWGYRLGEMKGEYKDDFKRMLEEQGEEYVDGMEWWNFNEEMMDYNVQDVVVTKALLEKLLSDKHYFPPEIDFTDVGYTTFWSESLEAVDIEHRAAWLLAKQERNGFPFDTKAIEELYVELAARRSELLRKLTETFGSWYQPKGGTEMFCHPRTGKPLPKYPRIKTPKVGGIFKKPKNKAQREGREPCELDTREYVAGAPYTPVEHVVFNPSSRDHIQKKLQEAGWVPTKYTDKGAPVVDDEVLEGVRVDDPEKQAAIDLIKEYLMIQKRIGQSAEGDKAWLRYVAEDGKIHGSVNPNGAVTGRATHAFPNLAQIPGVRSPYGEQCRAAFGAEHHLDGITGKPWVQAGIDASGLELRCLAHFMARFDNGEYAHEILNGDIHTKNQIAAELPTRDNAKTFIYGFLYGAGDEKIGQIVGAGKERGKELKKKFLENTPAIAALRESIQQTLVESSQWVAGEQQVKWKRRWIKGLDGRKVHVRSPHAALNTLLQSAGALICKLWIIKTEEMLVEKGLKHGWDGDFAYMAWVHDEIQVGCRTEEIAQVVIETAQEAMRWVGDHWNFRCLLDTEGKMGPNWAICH
T1 sequence (P19821 whole entry): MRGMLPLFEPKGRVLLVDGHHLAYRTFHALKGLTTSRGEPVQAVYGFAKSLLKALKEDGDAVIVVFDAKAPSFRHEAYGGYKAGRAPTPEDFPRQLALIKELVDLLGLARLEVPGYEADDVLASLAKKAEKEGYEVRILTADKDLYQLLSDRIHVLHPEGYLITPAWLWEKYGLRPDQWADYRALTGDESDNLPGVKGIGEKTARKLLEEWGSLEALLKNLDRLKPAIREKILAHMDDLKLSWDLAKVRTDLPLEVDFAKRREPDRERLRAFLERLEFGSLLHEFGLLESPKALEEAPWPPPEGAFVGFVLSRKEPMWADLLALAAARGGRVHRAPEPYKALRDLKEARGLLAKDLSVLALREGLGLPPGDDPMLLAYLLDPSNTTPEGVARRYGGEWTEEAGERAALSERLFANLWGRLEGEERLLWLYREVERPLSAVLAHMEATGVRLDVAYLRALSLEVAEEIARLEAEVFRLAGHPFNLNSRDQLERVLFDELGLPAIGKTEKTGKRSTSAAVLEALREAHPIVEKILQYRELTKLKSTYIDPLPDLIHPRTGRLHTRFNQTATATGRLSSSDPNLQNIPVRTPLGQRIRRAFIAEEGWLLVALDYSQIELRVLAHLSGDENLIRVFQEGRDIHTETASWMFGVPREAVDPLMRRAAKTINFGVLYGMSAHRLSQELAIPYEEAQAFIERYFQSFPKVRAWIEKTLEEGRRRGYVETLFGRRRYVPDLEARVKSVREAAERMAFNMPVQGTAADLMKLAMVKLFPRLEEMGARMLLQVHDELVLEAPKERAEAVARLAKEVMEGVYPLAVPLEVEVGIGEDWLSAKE

On to “4′-C-(Aminomethyl)thymidine triphosphate [compound (9)]”, for which the “result of incorporation (termination / further chain extension)” value at Taq DNA polymerase is listed as “T”; in the test with Thermosequenase E, “T”; on Tfl DNA polymerase, “T”; on T7 DNA polymerase, “T/E”; with Thermosequenase, “T/E”; in the test on delta Tts DNA polymerase, “T”. In addition, the “primer extended by at least one base within assay time (grade)” value (from here on “primer extended”) at Taq DNA polymerase is recorded as “+/− (up to 25% of primer extended by at least one base within assay time)”; in the test on Thermosequenase E, “++ (up to 75% of primer extended by at least one base within assay time)”; at Tfl DNA polymerase, “+/− (up to 25% of primer extended by at least one base within assay time)”; at T7 DNA polymerase, “+/− (up to 25% of primer extended by at least one base within assay time)”; in the test with Thermosequenase, “+ (up to 50% of primer extended by at least one base within assay time)”; with delta Tts DNA polymerase, “+++”. The “further extension after incorporation” value in the test with a range of polymerases was “some extension was observed”. For the same compound, the result of incorporation in the test with a range of polymerases is “termination”. Moreover, in the test on a range of polymerases, the substrate for polymerases entry was “effective substrates”.
For “4′-C-(Glycylaminomethyl)thymidine triphosphate [compound (6)]”, the “result of incorporation (termination / further chain extension)” value is “T” at Taq DNA polymerase; “T” with Thermosequenase E; “T” at Tfl DNA polymerase; “T/E” on T7 DNA polymerase; “T/E” in the test with Thermosequenase; “T” in the test on delta Tts DNA polymerase. Besides, the “primer extended” value on Taq DNA polymerase is “+/− (up to 25% of primer extended by at least one base within assay time)”; in the test on Thermosequenase E it was “++ (up to 75% of primer extended by at least one base within assay time)”; at Tfl DNA polymerase, “+/− (up to 25% of primer extended by at least one base within assay time)”; on T7 DNA polymerase, “+/− (up to 25% of primer extended by at least one base within assay time)”; in the test on Thermosequenase it was “+ (up to 50% of primer extended by at least one base within assay time)”; in the test on delta Tts DNA polymerase it was “+++”. In the test on a range of polymerases, the “further extension after incorporation” value was “some extension was observed”. Besides, the result of incorporation in the test with a range of polymerases is “termination”. Also, the substrate for polymerases result in the test with a range of polymerases is on record as “effective substrates”.
On to `Cc1cn([C@H]2C[C@H](O)[C@@](CNC(=O)C(F)(F)F)(COP(=O)(O)OP(=O)(O)OP(=O)(O)O)O2)c(=O)[nH]c1=O` [compound (8), 4′-C-(N-trifluoroacetylaminomethyl)thymidine triphosphate], for which the “result of incorporation (termination / further chain extension)” value at Taq DNA polymerase was “T”; in the test with Thermosequenase E, “T”; on Tfl DNA polymerase it was “T”; on T7 DNA polymerase, “T/E”; in the test on Thermosequenase it was “T/E”; with delta Tts DNA polymerase, “T”. In addition, the “primer extended” value on Taq DNA polymerase is reported as “+/− (up to 25% of primer extended by at least one base within assay time)”; in the test on Thermosequenase E, “++ (up to 75% of primer extended by at least one base within assay time)”; on Tfl DNA polymerase, “+/− (up to 25% of primer extended by at least one base within assay time)”; at T7 DNA polymerase, “+/− (up to 25% of primer extended by at least one base within assay time)”; in the test on Thermosequenase, “+ (up to 50% of primer extended by at least one base within assay time)”; with delta Tts DNA polymerase, “+++”. For the same compound, in the test with a range of polymerases, the “further extension after incorporation” value was “some extension was observed”. Also, the result of incorporation in the test with a range of polymerases is on record as “termination”. Besides, the substrate for polymerases result in the test with a range of polymerases is recorded as “effective substrates”.

These data come from patent US7078499B2, “Nucleotide analogues comprising a reporter moiety and a polymerase enzyme blocking moiety” (GE Healthcare UK Limited, priority 2000, dated 2006).
